# Assay results from patent US10702526B2, “Inhibitors of immune checkpoint modulators and related methods” (eFFECTOR Therapeutics, Inc., priority 2015, dated 2020).
# pEC50: −log10 of the molar value. Entries after “also recorded” stand apart in the source; their conditions may differ.
# Experiments:
# [1] = test system: IL-2 production in Jurkat T cells; assay: IL-2 ELISA on supernatants of activated Jurkat T cells; format: cell-based, human; conditions: Jurkat T cells with PHA and PMA, 48 hours
# Method: To examine the effect of MNK-specific inhibitors on PD-1 expression, Jurkat cells (Clone E6.1, ATCC, transformed T cells) were used, which express PD-1 when activated through T cell receptor (TCR) signaling. Briefly, Jurkat cells were grown in 1×RPMI with 1× Pen/Strep, and 10% FBS, then about 3×10^6 Jurkat cells were activated in presence of 1 μg/mL PHA (Sigma) and 50 ng/mL PMA (Sigma). Test Cells were treated simultaneously with various concentrations of MNK-specific inhibitor Compound 107 (0, 0.01, 0.1, 1, 3 and 10 μM). After 48 hours, culture supernatants were harvested and examined via sandwich ELISA for the presence of IL-2 using human IL-2 ELISA DuoSet® (R&D Systems, Minneapolis, Minn.). […] After fixation, cells were washed twice with flow buffer and re-suspended in flow buffer and assessed for fluorescence using BD Accuri C6 flow cytometer. Data were analyzed using the C6 cytometer software (BD Biosciences, San Jose, Calif.).
# Jurkat cells = assay: Jurkat T cell viability (fixable dead cell stain); format: cell-based
# Method: To examine the effect of MNK-specific inhibitors on PD-1 expression, Jurkat cells (Clone E6.1, ATCC, transformed T cells) were used, which express PD-1 when activated through T cell receptor (TCR) signaling. Briefly, Jurkat cells were grown in 1×RPMI with 1× Pen/Strep, and 10% FBS, then about 3×10^6 Jurkat cells were activated in presence of 1 μg/mL PHA (Sigma) and 50 ng/mL PMA (Sigma). Test Cells were treated simultaneously with various concentrations of MNK-specific inhibitor Compound 107 (0, 0.01, 0.1, 1, 3 and 10 μM). After 48 hours, culture supernatants were harvested and examined via sandwich ELISA for the presence of IL-2 using human IL-2 ELISA DuoSet® (R&D Systems, Minneapolis, Minn.). The level of PD-1 on Jurkat cells was examined by incubating cells with fixable dead cell stain (1:20,000; BD Biosciences, San Jose, Calif.) for 15 minutes at 4° C., washed twice with flow staining buffer (1×PBS, 4% FBS and 1 mM EDTA), incubated with human FcR block, then contacted with allophycocyanin (APC) conjugated anti-PD-1 antibody (Biolegend, San Diego, Calif.) for 30 minutes at 4° C., washed two times with flow buffer, and finally cells were fixed with fixation buffer for 20 minutes at 4° C. After fixation, cells were washed twice with flow buffer and re-suspended in flow buffer and assessed for fluorescence using BD Accuri C6 flow cytometer. Data were analyzed using the C6 cytometer software (BD Biosciences, San Jose, Calif.).
# PD-L1 = PD-L1 expression in tumor cell lines (Western blot); format: cell-based, human; conditions: MDA-MB-231, HBL-1, A549, MDA-MB-361, AMO-1; 0.01-10 μM, 48 hours, vs DMSO
# [2] = test system: LAG3 expression on human Pan-T cells; assay: LAG3 expression on primary T cells activated with anti-CD3/anti-CD28 beads (flow cytometry); format: cell-based
# Method: (§1) About 3×10^5 T cells were activated using anti-CD3/anti-CD28 magnetic beads as per manufacturer's protocol (Dynabeads®, Invitrogen, Carlsbad, Calif.). Briefly, a ratio of fresh primary T cells to beads used to activate the T cells was 1:1 (for every 80,000 T cells, 2 μl of beads were added). Test cells were treated simultaneously with various concentrations of MNK-specific inhibitor Compound 107 (0.01, 0.1, 1, 3 and 10 μM). After 48 hours, culture supernatants were harvested and examined via sandwich ELISA for the presence of IL-2 using human IL-2 ELISA DuoSet® (R&D Systems, Minneapolis, Minn.). […] After fixation, cells were washed twice with flow buffer and re-suspended in flow buffer and assessed for fluorescence using BD Accuri C6 cytometer. Data were analyzed using the C6 cytometer software (BD Biosciences, San Jose, Calif.).
# [3] = test system: IL-2 production in primary T cells; assay: IL-2 ELISA on supernatants of activated primary T cells; format: cell-based, human; conditions: T cells activated with anti-CD3/anti-CD28 beads
# Method: as §1
# primary T cells = assay: Primary T cell viability (fixable dead cell stain); format: cell-based; conditions: T cells activated with anti-CD3/anti-CD28 beads
# Method: as §1
# [4] = test system: IL-10 production in primary T cells; assay: IL-10 production by activated primary T cells; format: cell-based, human
# [5] = test system: HLA class II protein HLA-DQA1; assay: HLA-DQA1 protein level in TMD8 cells (Western blot); format: cell-based, human
# Method: (§2) The ability of MNK-specific inhibitor compounds to regulate the level of HLA class II proteins was evaluated in a diffuse large B-cell lymphoma (DLBCL) cell line, TMD8. Briefly, human DLBCL cell line TMD8 (ATCC), was cultured in RPMI media supplemented with penicillin G (100 U/ml), streptomycin (100 μg/ml), and 10% FBS in a humidified atmosphere of 5% CO2 maintained at 37° C. About 2-4×10^6 TMD8 cells were seeded in 10 cm plates 24 hours prior to drug treatment. The following day, cells were treated with either vehicle control (DMSO) or Compound 107 at the indicated concentration (FIG. 7). Cells were harvested 48 hours post-treatment.
# (§3) Treated cells were harvested, washed with PBS and lysed in 1×RIPA buffer (Thermo Fisher) for 15 minutes at 4° C. Lysates were clarified by centrifugation for 15 min at 14,000×rpm and supernatants were collected. Protein concentration in the soluble fraction was determined using the BCA protein assay (Thermo Scientific). Proteins were resolved on 4-20% Bis-Tris gradient polyacrylamide gel (Invitrogen) and transferred to nitrocellulose membrane. […] The blots were washed, scanned, and specific proteins detected using the LI-COR Odyssey infrared imager. […]
# phospho-eIF4E = assay: eIF4E phosphorylation in TMD8 cells (Western blot); format: cell-based, human
# Method: as §2, §3
smiles,measurement,setting,value
Cc1cc(Nc2cc(N)ncn2)c(=O)n2c1C(=O)NC21CCCCC1.Cl [Compound 107],IL-2 production,[1],did not alter cytokine production; also recorded: did not detectably alter IL-2 production
same,Cell Death,"Jurkat cells; Jurkat T cell assay, MNK-specific inhibitors",− (− = 0-10%)
same,cell viability (percentage of dead cells),Jurkat cells; Jurkat cells with PHA and PMA,no effect on cell viability; also recorded: unaffected
same,expression of PD-L1,PD-L1,reduced in a dose dependent manner
same,reduction in the expression of LAG3,"[2]; CD3/CD28 antibody bead activated T cells, 10 μM",62%
same,LAG3 expression,"[2]; primary T cells, anti-CD3/anti-CD28 beads, 0.01-10 μM",reduced in a dose dependent manner
same,IL-2 production,[3],did not detectably alter IL-2 production
same,T cell viability (percentage of dead cells),primary T cells,no effect on T cell viability; also recorded: unaffected
same,% IL-10 Inhibition,[4],++++ (++++ = 75-100%)
same,expression/production of IL-10,[4],inhibited
same,inhibition at 10 µM,"[4]; Homo sapiens, T-cell, 10 μM, read-out: maximum inhibition of the production of IL-10",96%
same,pEC50,"[5]; Homo sapiens, TMD8, 48 h, read-out: EC50 of increase in HLA-DQA1 protein level",~6.52
same,HLA-DQA1 protein level,"[5]; TMD8 cells, 48 hours, 300 nM or 10 μM",dose dependent increase
same,phosphorylation of eIF4E,phospho-eIF4E,potently inhibited
